Target: human Autotaxin enzyme (Homo sapiens (Human), UniProt Q13822)
Assay: Autotaxin FS-3 assay
Assay type: biochemical
Details: Autotaxin FS3 assay; human Autotaxin enzyme 2 nM; inhibition of FS-3 fluorescence; range and n in brackets
From the text: Autotaxin (ATX) converts Lysophosphatidyl choline (LPC) to Lysophosphatidic acid (LPA) via its Lysophosphodiesterase (lysoPLD) activity. FS-3 is an LPC analogue that is conjugated with both a fluorophore and a quencher. In its native state the quencher interferes with the fluorophore's fluorescence. Once autotaxin cleaves FS-3, the fluorophore becomes liberated from the quencher, resulting in increased fluorescence. Thus increase in fluorescence is a measure of ATX activity. Any compound that inhibits the activity of Autotaxin will show less fluorescence read in presence of FS-3, which could be measured by fluorimetric analysis. See U.S. Pat. No. 7,989,663.
Autotaxin Inhibitor Screening Kits are available from Echelon Biosciences, Logan, Utah, USA [http://echelon-inc.com/, accessed 6 Oct. 2011]. Using the methods of Gierse et al [“A novel autotaxin inhibitor reduces lysophosphatidic acid levels in plasma and the site of inflammation”, Journal of Pharmacology and Experimental Therapeutics, vol 334(1), 310-317 (2010), see in particular page 312 lines 4-14], the potency of the compounds of the invention as inhibitors of human autotaxin enzyme may be measured (as IC50 values).
The FS-3 assay to identify ATX inhibitors was preformed as follows: 3 μl of standard inhibitor (referred to as PF-8380 in Gierse et al above) and test compounds were added to an assay plate. To each assay well, containing test compounds or standard, 24 μl of human Autotaxin enzyme (2 nM) was added. The assay plate was then centrifuged at 1000 rpm for 1 minute and allowed to incubate at 37° C. for 30 minutes. Following the incubation period each plate was read in a fluorescence plate reader (Spectra Max M5: excitation: 494 nm and emission: 520 nm) and IC50 values were derived from inhibition of FS-3 fluorescence (as described above).

Structure (SMILES)	IC50 [nM]
Cc1noc(NC(=O)c2ccc(NCc3cccc4ccccc34)nn2)c1C [Example 10, N-(3,4-dimethylisoxazol-5-yl)-6-[(1-naphthylmethyl)-amino]pyridazine-3-carboxamide]	114
Cc1onc(-c2ccccc2)c1CNc1ccc(C(=O)NCc2cc(F)cc(F)c2)nn1 [Example 14, N-(3,5-difluorobenzyl)-6-{[(5-methyl-3-phenylisoxazol-4-yl)methyl]amino}pyridazine-3-carboxamide]	646
O=C(NCCCn1ccnc1)c1ccc(NCc2cc(Cl)cc(Cl)c2)nn1 [Example 7, 6-[(3,5-dichlorobenzyl)amino]-N-[3-(1H-imidazol-1-yl)propyl]pyridazine-3-carboxamide]	89.2
Cc1noc(NC(=O)c2ccc(NCc3cccc(Cl)c3Cl)nn2)c1C [Example 11, 6-[(2,3-dichlorobenzyl)amino]-N-(3,4-dimethyl-isoxazol-5-yl)pyridazine-3-carboxamide]	248
Cc1cc(NC(=O)c2ccc(NC(CO)Cc3ccc(Cl)cc3)nn2)n(C)n1 (centres unmarked) [Example 13, 6-{[1-(4-chlorobenzyl)-2-hydroxyethyl]amino}-N-(1,3-dimethyl-1H-pyrazol-5-yl)pyridazine-3-carboxamide]	507
Cc1noc(NC(=O)c2ccc(NC3CCN(Cc4ccccc4)C3)nn2)c1C (centres unmarked) [Example 12, 6-[(1-benzylpyrrolidin-3-yl)amino]-N-(3,4-dimethyl-isoxazol-5-yl)pyridazine-3-carboxamide]	357
O=C(NCCN1CCNC1=O)c1ccc(NC2Cc3ccccc3C2)nn1 [Example 6, 6-(2,3-dihydro-1H-inden-2-ylamino)-N-[2-(2-oxoimidazolidin-1-yl)ethyl]pyridazine-3-carboxamide]	73.8
Cc1noc(NC(=O)c2ccc(NC(C)c3ccc(Cl)cc3)nn2)c1C (centres unmarked) [Example 8, 6-{[1-(4-chlorophenyl)ethyl]amino}-N-(3,4-dimethyl-isoxazol-5-yl)pyridazine-3-carboxamide]	100
Cc1ccc(F)c(CNc2ccc(C(=O)Nc3onc(C)c3C)nn2)c1F [Example 9, 6-[(2,6-difluoro-3-methylbenzyl)amino]-N-(3,4-dimethylisoxazol-5-yl)pyridazine-3-carboxamide]	103

Now those with a lower IC50, led by results:

IC50 [nM]	Structure (SMILES)
65.2	CCN(Cc1ccncc1)c1ccc(C(=O)Nc2cc(-c3ccccc3)nn2C)nn1 [Example 4, 6-[ethyl(pyridin-4-ylmethyl)amino]-N-(1-methyl-3-phenyl-1H-pyrazol-5-yl)pyrid azine-3-carboxamide]
24.9	COc1ccc(C(CCO)Nc2ccc(C(=O)NCc3cc(F)cc(F)c3)nn2)cc1 (centres unmarked) [Example 2, N-(3,5-difluorobenzyl)-6-{[3-hydroxy-1-(4-methoxy-phenyl)propyl]amino}pyridazine-3-carboxamide]
69.5	COc1ccc(C(CCO)Nc2ccc(C(=O)Nc3onc(C)c3C)nn2)cc1 (centres unmarked) [Example 5, N-(3,4-dimethylisoxazol-5-yl)-6-{[3-hydroxy-1-(4-methoxyphenyl)propyl]amino}pyridazine-3-carboxamide]
14	COc1ccc(C(CCO)Nc2ccc(C(=O)NCc3cc(F)ccc3F)nn2)cc1 (centres unmarked) [Example 1, N-(2,5-difluorobenzyl)-6-{[3-hydroxy-1-(4-methoxy-phenyl)propyl]amino}pyridazine-3-carboxamide]
37.6	Cc1noc(NC(=O)c2ccc(NC(CO)Cc3ccc(Cl)cc3)nn2)c1C (centres unmarked) [Example 3, 6-{[1-(4-chlorobenzyl)-2-hydroxyethyl]amino}-N-(3,4-dimethylisoxazol-5-yl)pyridazine-3-carboxamide]

— US9273011B2, “Substituted pyridazines for the treatment of pain” (INHIBITAXIN LIMITED, priority 2011, dated 2016)
